“Also recorded” adds a separate entry of the source.
Tested on: CYP1A2, CYP2A6, CYP2D6, CYP2E1, CYP2C19
Assay: Effect of the other specific inhibitors on CK metabolism in HLMs
Format: in vitro ADME, human
Details: CK 50 μM, furafylline, tranylcypromine, quinidine, ticlopidine 1 μM, chlormethiazole 5 μM
Method: The method was conducted according to our previous study with some modifications. The CYP isoform-specific probe reactions used were phenacetin O-deethylation (for CYP1A2), coumarin 7-hydroxylation (for CYP2A6), tolbutamide 4-hydroxylation (for CYP2C9), metoprolol α-hydroxylation (for CYP2D6), chlorzoxazone 6-hydroxylation (for CYP2E1),S-Mephenytoin 4-hydroxylation (for CYP2C19), and midazolam 1-hydroxylation (for CYP3A4). The kinetic study of CK was conducted with HLMs. A 0.2 mL incubation mixture that consisted of CK (as a substrate), the HLMs (0.5 mg/mL) or CYP isoforms (10 pmol), and 0.1 M sodium phosphate buffer (pH 7.4) was pre-warmed for 5 min at 37°C. The reaction was initiated by the addition of 1 mg/mL triphosphopyridine nucleotide (NADPH). […]
To screen the specific CYP isoform responsible for the CK metabolism, we determined the inhibitory effect of specific inhibitors on the metabolism of CK in the HLMs as described in detail previously. […] The inhibitory effects of the above specific inhibitors on the metabolic clearance rate of CK were evaluated separately to screen the CYP isoforms responsible for the CK metabolism. The relative activity of the CYP isoforms was calculated by dividing the peak area of CK when incubated with the inhibitor by that of CK from the negative controls. […]

CC(C)=CCC[C@](C)(OC1O[C@H](CO)[C@@H](O)[C@H](O)[C@H]1O)[C@H]1CC[C@]2(C)[C@@H]1[C@H](O)C[C@@H]1[C@@]3(C)CC[C@H](O)C(C)(C)[C@@H]3CC[C@]12C (stereo partly drawn) [CK, 20-O-β-(D-glucopyranosyl)-20(S)-protopanaxadiol]
effect of other specific inhibitors / CYP isoforms on CK metabolism: minimal or no effect; also recorded: no obvious inhibitory effects; also recorded: no significant inhibitory effects

Reference: PMC4742234, “Screening of Drug Metabolizing Enzymes for the Ginsenoside Compound K In Vitro: An Efficient Anti-Cancer Substance Originating from Panax Ginseng” (PLoS ONE, 2016)
